Results taken from publication PMC4757451 (Biochemistry, 2015).

Experiments:
[1] = biological target: T1, CYP3A4 (Homo sapiens, UniProt P08684, S18F); assay: Product formation; conditions: for Product formation rate after second substrate binding: intermediate with two molecules bound ([20]/[02]); for CBZ Product Rate / PGS Product Rate: mixed substrate global fit
[2] = biological target: T1, CYP3A4; assay: Steady-state NADPH oxidation by CYP3A4 Nanodiscs with CPR; type: biochemical

Row | Structure (SMILES) | Product formation rate with only one substrate molecule bound ([1]; first binding intermediate, fitted parameters, in words) | Product formation rate after third binding event ([1]; intermediate with three molecules bound ([03]), pure substrate) [min⁻¹] | Product formation rate after second substrate binding ([1]; pure substrate) [min⁻¹] | CBZ Product Rate ([1]; mixed intermediate [11]) | CBZ product formation rate ([1]; mixed intermediate [12]) [min⁻¹] | CBZ Product Rate ([1]; mixed intermediate [12]) | CBZ product formation rate ([1]; mixed intermediate [21]) [min⁻¹] | CBZ Product Rate ([1]; mixed intermediate [21]) | PGS product formation rate in CBZ/PGS mixture at high concentration ([1]; CBZ/PGS 12:1 mixture, 60 µM and higher PGS) [min⁻¹] | Maximum PGS product formation rate in CBZ/PGS mixture ([1]; CBZ/PGS 12:1 mixture, reached at 18–20 µM PGS) [min⁻¹] | Factor by which PGS hydroxylation in [11] is slower than in [20] ([1]; [11] versus [20]) | Hill coefficient nH ([1]; fitting with the Hill equation, pure PGS) | Rate of PGS hydroxylation ([1]; mixed intermediate [11]) [min⁻¹] | PGS Product Rate ([1]; mixed intermediate [11]) | PGS Product Rate ([1]; mixed intermediate [12]) | PGS Product Rate ([1]; mixed intermediate [21]) | Maximum rate of NADPH consumption, pure substrate ([2]; at 30 µM PGS, at 200 µM CBZ) [min⁻¹] | NADPH consumption rate ([2]; intermediate [20], pure PGS) [min⁻¹] | Rate of NADPH consumption at higher PGS concentrations ([2]; pure PGS, above 30 µM, decreases down to this value) [min⁻¹]
1 | NC(=O)N1c2ccccc2C=Cc2ccccc21 [CBZ, carbamazepine] | negligible | 3 | 1.7 | 0 (0.01) nmol/nmol/min | 4.5 | 4.5 (2.0 – 6.0) nmol/nmol/min | 11 | 11 (9.8 – 12.2) nmol/nmol/min | – | – | – | – | – | – | – | – | – | – | –
2 | CC(=O)[C@H]1CC[C@H]2[C@@H]3CCC4=CC(=O)CC[C@]4(C)[C@H]3CC[C@]12C [PGS, progesterone] | – | – | 14.7 | – | – | – | – | – | 4 | 5 | 4 | 1.7 | 4 | 4 (3.7 – 4.2) nmol/nmol/min | 0 (0.01) nmol/nmol/min | 0 (0.02) nmol/nmol/min | 240 | 388 | 160
